The record followed here is paper PMC8281983 (Journal of the American Chemical Society, 2021).

The assay addresses T1, BRCA1-associated ATM activator 1 (BRAT1) (Homo sapiens, UniProt Q6PJG6).
T1 sequence (Q6PJG6 1-821): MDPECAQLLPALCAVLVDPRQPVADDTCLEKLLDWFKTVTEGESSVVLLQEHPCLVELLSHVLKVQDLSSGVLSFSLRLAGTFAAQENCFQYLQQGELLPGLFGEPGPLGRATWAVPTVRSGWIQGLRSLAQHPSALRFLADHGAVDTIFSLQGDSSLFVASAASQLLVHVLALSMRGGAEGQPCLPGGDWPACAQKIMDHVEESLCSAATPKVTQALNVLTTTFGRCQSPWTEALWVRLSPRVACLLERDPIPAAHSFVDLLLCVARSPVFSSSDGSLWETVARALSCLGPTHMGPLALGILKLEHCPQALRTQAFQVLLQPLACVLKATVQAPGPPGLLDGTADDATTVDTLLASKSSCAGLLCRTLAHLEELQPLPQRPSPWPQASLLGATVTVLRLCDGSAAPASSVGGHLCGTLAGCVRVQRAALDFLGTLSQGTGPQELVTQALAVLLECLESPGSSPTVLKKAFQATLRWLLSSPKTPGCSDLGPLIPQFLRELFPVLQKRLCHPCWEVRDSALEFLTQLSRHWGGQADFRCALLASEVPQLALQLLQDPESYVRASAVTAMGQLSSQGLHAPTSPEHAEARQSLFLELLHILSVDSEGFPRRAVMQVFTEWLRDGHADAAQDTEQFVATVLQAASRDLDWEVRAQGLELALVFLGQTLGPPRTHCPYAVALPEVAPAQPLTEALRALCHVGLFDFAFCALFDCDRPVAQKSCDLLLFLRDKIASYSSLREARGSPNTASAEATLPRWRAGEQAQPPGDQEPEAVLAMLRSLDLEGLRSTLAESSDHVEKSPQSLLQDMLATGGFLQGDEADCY
It counts as cell-based.

As a reminder, the EC50 is the concentration at which the effect is half-maximal. Low values mean higher potency in that assay, high ones lower potency in that assay.

The structures appear in SMILES notation.

Regarding `C=C(C)C1CCC(=C)C2C3=C(C[C@@](C)(O)C3=O)C(=O)C(C)=C[C@@H]12` (stereo partly shown) [1d, curcusone D], the EC50 worked out at 2700 nM.
